Results on twelve substances are retold here after patent publication US10295537B2, “Biorecognition elements for rapid detection of biocontamination” (The United States of America, as represented by the …, priority 2017, dated 2019).

The test system of one assay is P. stutzeri cells. The experiment in a line: Fluorometry of P. stutzeri cells labeled with peptide-QD525 conjugates. The conditions noted are these: emission peak at 525 nm, 1×10^9 P. stutzeri cells. The assay is classed as cell-based. The method, then:
The emission peak fluorescence at 525 nm of 1×10^9 P. stutzeri cells labeled with peptide-QD525 conjugates was measured in a fluorometer and relative fluorescence units (“RFIU”) were compared (Table 6 and 7, above). Peptides OBP11 and OBP12 targeting OprF, and peptide OPP1 targeting Opr86 presented fluorescence levels that greatly surpassed the other selected peptides for the respective target. OPP1, OBP11, and OBP12 were selected for further characterization and validation.
(§1) Bacterial stocks for experimentation were prepared by harvesting overnight grown bacterial cells by centrifugation at 11000×g for 15 min (at 4° C.), washed once with 1×PBS, pH 7.2, and re-suspended in 1×PBS to a concentration of 1×10^9 cells/mL. Bacterial titers were determined by measuring optical density at 600 nm and confirmed by colony counting on LB agar plates. Cell pellets produced by centrifuging 1 mL of the 1×10^9 cells/mL stock were re-suspended in 38 μL of 1×PBS and 62 μL of 2.4 μM peptide-QD was added to a final concentration of 1.5 μM. Cells were incubated for 30 min at 25° C. Cell pellets were washed three-times with 0.5 mL PBS and re-suspended in 500 μL PBS for fluorescence assays and imaging. Dilutions ranging from 1×10^9 cells to 1×10^4 cells were prepared using standard bacteriological techniques and 0.5 mL samples were used for fluorescence measurements.
(§2) Emission spectra were obtained using Cary Eclipse Fluorimeter with excitation at 330 nm, scan rate of 120 nm/imin, and PMT voltage of 1000V. Spectra were corrected for background and dilution factor when appropriate.

The next assay deals with Opr86. The assay can be described thus: Solution biopanning against biotinylated Opr86 extracellular loop fragment, three rounds of selection. The assay is classed as binding, P. aeruginosa. The conditions noted are these: Bushnell-Haas pH 8.5 with 1% Jet-A. The method, then: Generally, solution-phase biopanning was carried out as described by the manufacturer (New England Biolabs, Ipswich, Mass.) with some modifications, including the changing of pH from 7.0 to 5.5 and 8.5 and adding 1% v/v of Jet A fuel. The first round of selection was carried out by diluting Ph.D.-7 bacteriophage library 100-fold in 0.1% Tris buffer saline plus Tween 20 (0.1% TBST) at the appropriate pH for selection plus fuel. Subsequently, the phage library was incubated with 1 μg of N-terminal biotinylated target protein fragment (OprF1: […] (SEQ. ID No. 1), OprF2: ADIKNLADFMK QYPSTSTT (SEQ. ID No. 2), Opr86: […] STP (SEQ. ID No. 3)) for 1 hr at 25° C. Phage-protein complexes were captured with 50 μL of streptavidin magnetic microbeads, unbound phages were removed, and the pellet sample washed 10-times with 1 mL of 1× Tris buffer saline (“TBS”) plus 0.05% TBST to remove weakly bound phage particles. Bound bacteriophages were eluted from the beads by lowering the pH (0.2 M Glycine-HCl, pH 2.2) while rotating gently for 10 min at 25° C. After neutralization with 1 M Tris-HCl, pH 9.1, eluted phages were amplified by infection of E. coli strain ER 2738 grown in Luria-Bertani (“LB”) broth medium until early-log phase (OD600 0.1-0.5). Titer of the amplified phage (more than 10^10 pfu/mL) was determined by infection into E. coli ER2738 and subsequent growth in selective medium containing X gal/IPTG. Amplified phages from round 1 were pre-cleared with streptavidin-coated magnetic microbeads (50 μL) to further remove non-specific binders and then used as the input phage for round 2 of selection. Enrichment of the bacteriophage pool was achieved by performing […] of selection under the appropriate pH plus jet fuel condition. Genomic DNA from individual clones was sequenced by GenScript (Piscataway, N.J.).
The particular region of the Opr86 extracellular loop of sequence […] (SEQ. ID No. 3) was chemically synthesized with a biotin capture element and used as target epitope for BRE development in solution biopanning in Bushnell-Haas, pH 8.5, supplemented with 1% Jet-A. Following the previously established procedure for OprF, several unique Opr86 peptide BREs (“OPPs”) were identified after three rounds of selection (Table 7, above).

For another assay, the system named is P. stutzeri. The experiment in a line: Detection of bacteria recovered from spiked 1 L Jet A fuel with peptide-QD545 (LOD, fluorescence). The assay is classed as cell-based. The conditions noted are these: for LOD (CFU) / Fluorescence (RFU): 1 L Jet A; for LOD (CFU): 1.5 μM peptide-QD; for detection possible down to, in some instances: below reproducible LOD; for Fluorescence (RFU): at LOD. The method, then:
(§3) To test the applicability of the peptide BRE-QD chemistry in the detection of bacteria in fuel and characterize the LOD in such system, bacterial cells from 1 L jet fuel samples spiked with different levels of bacteria were recovered, labeled, and detected.
(§4) One liter Jet A fuel samples were amended with 1 mL of 1×PBS containing either A. venetianus ATCC 31012 or P. stutzeri at the appropriate test concentration was added to 1 L of Jet A fuel. The inoculated jet fuel samples were thoroughly mixed by vortex for 1 min and allowed to stand for 20 min to 30 min. To recover the cells, 1 mL of 1×PBS, named bacterial recovery solution (“BRS”), was added to the jet fuel samples, the samples shaken by hand, allowed stand for 5 min, and, then, 1 mL of the aqueous phase was collected using a long serological pipette. The 1 mL of solution with bacteria was centrifuged for 5 min at 11000×g, and washed three times with 1 mL of 1×PBS. Bacterial pellets were individually labeled using a final concentration 1.5 μM peptide-QD. The LOD was defined as the lowest concentration level that could be determined to be statistically different from QD labeled cells from the results of multiple testers. The actual cell level (colony-forming units, “CFU”) detected was determined by plating a portion of the sample after being subjected to the labeled procedure.
(§5) Cells in the 1 L of fuel were recovered with 1 mL of BRS. Efficient labeling of the bacteria was indicated by high levels of fluorescence detected from the cell wall by fluorescence microscopy (FIG. 13 and Table 10, below). FIG. 14 is a similar image but of fungus (Hormoconis) labeled by peptide-QD605. The LOD was reliably determined from assays performed by multiple testers.

For another assay, the system named is A. venetianus ATCC 31012. Described as above. The conditions noted are these: for LOD (CFU): 1.5 μM peptide-QD; for detection possible down to, in some instances: below reproducible LOD. The class given is cell-based. The method, then: as §3, §4, §5
In assay [1] the test system is Gram negative bacteria (A. venetianus and Pseudomonas spp.). The experiment in a line: Fluorometry of fuel degrading bacteria labeled with peptide-QD545 conjugates (FIG. 11). The assay is classed as cell-based. The conditions noted are these: 1×10^9 cells, QD545 conjugates, FIG. 11. The method, then:
To characterize the specificity of the peptide BRE-QD545 conjugates for the intended bacterial groups, fluorescence imaging and fluorometric analysis were performed using different Gram negative and Gram positive fuel degrading bacteria. As such, cultures comprising 1×10^9 cells of Gram negative bacteria (P. stutzeri, P. alkaligenes, P. aeruginosa and A. venetianus) and Gram positive bacteria (Arthrobacter sp. and Lynsinibacillus sp.) were labeled with OPP1, OBP11 and OBP12 biofunctionalized QD545 and visualized using fluorescence microscopy (FIGS. 5-10) and the fluorescence quantified using a fluorometer (FIG. 11).
as §1, §2

Ends that are not written are not given here.

Regarding “R K K S R I R (RKKSRIR; Artificial sequence obtained through biopanning.) [OPP6, Opr86 peptide BRE]”, the “Fluorescence (RFU)” value in the assay with P. stutzeri cells was 4126 ± 98 RFU. Also, the “% Abundance” value with Opr86 was determined as 2%.
As for “L R P L M N R (LRPLMNR; Artificial sequence obtained through biopanning.) [OPP4, Opr86 peptide BRE]”, the “Fluorescence (RFU)” value with P. stutzeri cells was determined as 1383 ± 74 RFU. Further, the “% Abundance” value in the assay with Opr86 is reported as 3%.
Take “QD545-OBP11: peptide OBP11 conjugated to quantum dot QD545 (PIKTNRK; also: conjugated to quantum dot QD545)”: in the assay with P. stutzeri, the LOD is listed as 5×10^5 CFU/mL of BRS; the “LOD (CFU)” value is reported as 5 × 10^5 CFU; the “detection possible down to, in some instances” value is on record as 5×10^4 CFU/mL of BRS. Besides, in the assay with A. venetianus ATCC 31012, the LOD is on record as 5×10^5 CFU/mL of BRS and the “detection possible down to, in some instances” value is 5×10^4 CFU/mL of BRS. The “LOD (CFU)” value in the assay on A. venetianus ATCC 31012 (1 L Jet A) is listed as 5 × 10^5 CFU.
Regarding “QD545-OPP1: peptide OPP1 conjugated to quantum dot QD545 (PRIRKSH; also: conjugated to quantum dot QD545)”, the LOD in the assay with P. stutzeri and in the assay on A. venetianus ATCC 31012 was 5×10^4 CFU/mL of BRS each time. Also, the “LOD (CFU)” value with P. stutzeri and in the assay with A. venetianus ATCC 31012 (1 L Jet A) was 5 × 10^5 CFU in each case. Further, the “Fluorescence (RFU)” value stood at 820 RFU in the assay on P. stutzeri and 773 RFU in the assay with A. venetianus ATCC 31012 (1 L Jet A, at LOD). For the same substance, the “detection possible down to, in some instances” value in the assay with P. stutzeri and with A. venetianus ATCC 31012 was 5×10^3 CFU/mL of BRS throughout. Besides, the “detection of Gram negative bacteria by fluorometer” value in assay [1] is “high fluorescence levels with all Gram negative bacteria tested”.
With “L P S T I H R (LPSTIHR; Artificial sequence obtained through biopanning.) [OPP3, Opr86 peptide BRE]”, the “Fluorescence (RFU)” value in the assay with P. stutzeri cells is on record as 2251 ± 63 RFU. Moreover, the “% Abundance” value in the assay with Opr86 was 2%.
For the substance “QD545-OBP12: peptide OBP12 conjugated to quantum dot QD545 (PKRTPRH; also: conjugated to quantum dot QD545)”, in the assay with P. stutzeri, the LOD was 5×10^5 CFU/mL of BRS; the “LOD (CFU)” value is 5 × 10^5 CFU; the “Fluorescence (RFU)” value is 12,205 RFU; the “detection possible down to, in some instances” value is given as 5×10^4 CFU/mL of BRS. Moreover, in the assay on A. venetianus ATCC 31012, the LOD was 5×10^5 CFU/mL of BRS and the “detection possible down to, in some instances” value is given as 5×10^4 CFU/mL of BRS. Besides, the “LOD (CFU)” value in the assay on A. venetianus ATCC 31012 (1 L Jet A) is 5 × 10^5 CFU.
For “RRSNSQL (Artificial sequence obtained through biopanning.) [OBP4]”, in the assay on P. stutzeri cells, the “Fluorescence (RFU)” value was 4520 ± 473 RFU.
With “I I T M K R R (IITMKRR; Artificial sequence obtained through biopanning.) [OPP5, Opr86 peptide BRE]”, in the assay on P. stutzeri cells, the “Fluorescence (RFU)” value worked out at 4408 ± 225 RFU. The “% Abundance” value in the assay with Opr86 worked out at 3%.
As for “NMTNPPP (Artificial sequence obtained through biopanning.) [OBP6]”, the “Fluorescence (RFU)” value in the assay with P. stutzeri cells is reported as 2080 ± 280 RFU.
Same read-out and setting: for “QMLLRLP (Artificial sequence obtained through biopanning.) [OBP9]” the value was 3338 ± 590 RFU; for “QITLRST (Artificial sequence obtained through biopanning.) [OBP7]”, 2625 ± 543 RFU.
With “M H N L N L L (MHNLNLL; Artificial sequence obtained through biopanning.) [OPP2, Opr86 peptide BRE]”, the “Fluorescence (RFU)” value in the assay with P. stutzeri cells is 1847 ± 52 RFU. In addition, in the assay on Opr86, the “% Abundance” value was found to be 2%.
